# Results published in patent publication US20070066543A1, “Treatment of tay sachs or sandhoff diseases by enhancing hexosaminidase activity” (The Hospital For Sick Children, priority 2003, published 2007).
# Read-outs that look alike come from different tables or passages of the source.
# Key:
# [1] = molecular target: hexosaminidase A in wild type fibroblasts (Homo sapiens, UniProt P06865+P07686); assay: Hexosaminidase A activity (MUGS) in wild type fibroblasts grown with compound; format: cell-based
# Sequence of hexosaminidase A in wild type fibroblasts (P07686 315-556 limits assumed, one chain of several): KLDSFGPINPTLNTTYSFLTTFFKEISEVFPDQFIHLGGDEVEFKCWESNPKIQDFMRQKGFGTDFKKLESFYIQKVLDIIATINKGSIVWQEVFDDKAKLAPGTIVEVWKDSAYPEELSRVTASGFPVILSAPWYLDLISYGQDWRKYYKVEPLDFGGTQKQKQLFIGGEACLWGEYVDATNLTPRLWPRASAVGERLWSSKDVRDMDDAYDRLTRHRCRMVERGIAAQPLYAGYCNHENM
# Sequence of hexosaminidase A in wild type fibroblasts (P07686 122-311 limits assumed, one chain of several): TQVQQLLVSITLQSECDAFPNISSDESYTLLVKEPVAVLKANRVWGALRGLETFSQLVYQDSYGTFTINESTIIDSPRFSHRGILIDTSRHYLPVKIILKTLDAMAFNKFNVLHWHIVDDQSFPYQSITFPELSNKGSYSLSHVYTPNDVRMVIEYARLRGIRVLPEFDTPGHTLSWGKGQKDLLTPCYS
# Sequence of hexosaminidase A in wild type fibroblasts (P07686 50-107 partner limits assumed, one chain of several): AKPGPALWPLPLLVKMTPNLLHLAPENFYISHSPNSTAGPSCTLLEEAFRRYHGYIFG
# Protocol: (§1) The effect of inhibitors on hexosaminidase A activity in fibroblast cells was evaluated using two formats (96- or 6-wells). For the dose response curves and kinetics of increased hexosaminidase A activity in the presence or absence of each compound, cells grown in 96 well tissue culture plates (Falcon) were used. To ensure that equal numbers of cells were seeded in each well, trypsinized cells were diluted to give 50% confluence when plated and 200 μL aliquoted into each well of the plate. Cells grown for longer than 5 days were supplemented with fresh medium. […] Each concentration point of the compounds was evaluated in triplicate.
# Following 3-7 days of incubation at 37° C. in the presence or absence of the compound being tested, intracellular hexosaminidase A activity was determined. Medium was removed, cells were washed with PBS twice and lysed using 60 μL of 10 mM citrate phosphate buffer pH 4.5 (CP buffer) containing 0.5% human serum albumin and 0.5% Triton X-100. Cells were solubilized at room temperature for 15 min, and subsequently 25 μL of lysate was transferred to a new 96 well plate. Hexosaminidase A activity in lysates was measured using 25 μL of 3.2 mM MUGS in CP buffer with incubation at 37° for 1 hr. Afterwards, 250 μL of 0.1M 2-amino-2-methyl-1-propanol (pH 10.5) was used to stop the reaction and increase the fluorescence of the methyl umbelliferyl product, Fluorescence was read with a Perkin-Elmer LS50B Luminescence Spectrometer equipped with a sipper and using excitation wavelength of 365 nm and emission wavelength of 450 nm. For dose response and kinetic experiments, the relative increase in hexosaminidase A activity was expressed as the average fluorescence reading from three or four wells, with cells grown in the presence of compound divided by the average fluorescent reading from a minimum of four wells, with cells grown in the absence any compound. To control for plate to plate variability, control (untreated) cells were included with each 96 well plate.
# Subsequently, hexosaminidase A activity was assayed using a MUGS assay as described above. […]
# [2] = tested on: hexosaminidase A in ITSD fibroblasts; assay: MUGS hydrolysis in infantile Tay-Sachs (ITSD) fibroblasts grown with compound; format: cell-based, human
# Protocol: Fibroblast cell lines from an unaffected patient (WT, 4212), from a patient diagnosed with the chronic (adult) form of TSD and homozygous for the mutation G269S (ATSD, 1766 or 17662) and from a fetus with the acute (infantile) form of TSD (ITSD, 2317) were grown in a-MEM (Invitrogen) supplemented with 10% FCS, and antibiotics Pen/Strep (Invitrogen) at 37° C. in a CO2 incubator. 17662: A fibroblast cell line (17662) from an adult-onset Tay-Sachs patient homozygous for the most common point mutation associated with the disease, Gly 269 Ser in the α subunit of hexosaminidase A, was obtained from Department of Pediatrics, University of Saskatoon.
# The effect of inhibitors on hexosaminidase A activity in fibroblast cells was evaluated using two formats (96- or 6-wells). For the dose response curves and kinetics of increased hexosaminidase A activity in the presence or absence of each compound, cells grown in 96 well tissue culture plates (Falcon) were used. […] Each concentration point of the compounds was evaluated in triplicate.
# Following 3-7 days of incubation at 37° C. in the presence or absence of the compound being tested, intracellular hexosaminidase A activity was determined. […] Hexosaminidase A activity in lysates was measured using 25 μL of 3.2 mM MUGS in CP buffer with incubation at 37° for 1 hr. Afterwards, 250 μL of 0.1M 2-amino-2-methyl-1-propanol (pH 10.5) was used to stop the reaction and increase the fluorescence of the methyl umbelliferyl product, Fluorescence was read with a Perkin-Elmer LS50B Luminescence Spectrometer equipped with a sipper and using excitation wavelength of 365 nm and emission wavelength of 450 nm. For dose response and kinetic experiments, the relative increase in hexosaminidase A activity was expressed as the average fluorescence reading from three or four wells, with cells grown in the presence of compound divided by the average fluorescent reading from a minimum of four wells, with cells grown in the absence any compound. […]
# [3] = tested on: hexosaminidase A in ASD fibroblasts; assay: Hexosaminidase activity in adult Sandhoff (ASD) fibroblasts grown with compound; format: cell-based, human; conditions: ASD cells
# Protocol: Fibroblast cell lines obtained from homozygous adult onset Tay-Sachs (ATSD), heterozygous adult onset Tay-Sachs (Het ATSD), infantile Tay-Sachs (ITSD and 4917), adult Sandhoff (ASD) and infantile Sandhoff (ISD) were cultured in the presence of various concentrations of ACAS and then examined for hexosaminidase A activity as described above. ACAS treatment gave increased hexosaminidase A activity in ATSD, ASD and ISD cells.
# [4] = molecular target: T1, hexosaminidase A/S in ISD cells (Homo sapiens, UniProt P06865); assay: Hexosaminidase activity in infantile Sandhoff (ISD) fibroblasts grown with compound; format: cell-based
# T1 construct: endogenous in cells; host or cells: infantile Sandhoff (ISD) patient fibroblasts
# T1 sequence (P06865 89-529): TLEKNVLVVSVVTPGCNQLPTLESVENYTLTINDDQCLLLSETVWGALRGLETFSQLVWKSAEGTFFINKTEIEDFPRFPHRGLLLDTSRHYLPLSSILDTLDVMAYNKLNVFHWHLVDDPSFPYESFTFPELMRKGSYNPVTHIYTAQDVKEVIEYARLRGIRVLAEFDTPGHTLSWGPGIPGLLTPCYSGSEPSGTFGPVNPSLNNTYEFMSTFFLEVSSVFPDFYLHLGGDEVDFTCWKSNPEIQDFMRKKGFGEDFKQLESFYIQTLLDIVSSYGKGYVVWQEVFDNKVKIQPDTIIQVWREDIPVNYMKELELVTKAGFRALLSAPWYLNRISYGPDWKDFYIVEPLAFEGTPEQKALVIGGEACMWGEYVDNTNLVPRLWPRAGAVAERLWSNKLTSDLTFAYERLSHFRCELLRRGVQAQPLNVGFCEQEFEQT
# T1 sequence (P06865 23-74 limits assumed): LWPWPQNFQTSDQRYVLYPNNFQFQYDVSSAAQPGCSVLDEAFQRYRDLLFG
# Protocol: Cells were washed and lysed in Na Phosphate buffer pH 6.1. The lysates were divided into three equal aliquots (25 μl). To each aliquot, 25 μl of either MUGS ( 3.2 mM) or MUP (3 mg/ml) in 20 mM citrate phosphate buffer pH 4.3 was added. Reactions were incubated at 37° C. for 30-60 min. and stopped with 200 μl of 0.1M MAP buffer. Fluorescence was read using Molecular Devices.
# Gemini EM MAX with excitation and emission set to 365 nm and 450 nm, respectively. The activity of Hexosaminidase A/S was measured using MUGS hydrolysis and acid phosphatase activity was measured using methylumbelliferyl phosphate (MUP).
# [5] = tested on: fibroblasts from a chronic TSD patient; conditions: human, 5 days
# Protocol: as §1
# human hexosaminidase A = human hexosaminidase A (Homo sapiens, UniProt P06865+P07686); assay: Ki on human hexosaminidase A; format: biochemical
# Sequence of human hexosaminidase A (P07686 315-556 limits assumed, one chain of several): as the sequence (P07686 315-556 limits assumed, one chain of several) above
# Sequence of human hexosaminidase A (P07686 122-311 limits assumed, one chain of several): as the sequence (P07686 122-311 limits assumed, one chain of several) above
# Sequence of human hexosaminidase A (P07686 50-107 partner limits assumed, one chain of several): as the sequence (P07686 50-107 partner limits assumed, one chain of several) above
# [6] = molecular target: T2, hexosaminidase from the bacterial species Streptomyces plicatus (Sp. Hex.) (Streptomyces plicatus, UniProt O85361); conditions: value carries reference superscript 56; cited from earlier work
# T2 sequence (O85361 1-506): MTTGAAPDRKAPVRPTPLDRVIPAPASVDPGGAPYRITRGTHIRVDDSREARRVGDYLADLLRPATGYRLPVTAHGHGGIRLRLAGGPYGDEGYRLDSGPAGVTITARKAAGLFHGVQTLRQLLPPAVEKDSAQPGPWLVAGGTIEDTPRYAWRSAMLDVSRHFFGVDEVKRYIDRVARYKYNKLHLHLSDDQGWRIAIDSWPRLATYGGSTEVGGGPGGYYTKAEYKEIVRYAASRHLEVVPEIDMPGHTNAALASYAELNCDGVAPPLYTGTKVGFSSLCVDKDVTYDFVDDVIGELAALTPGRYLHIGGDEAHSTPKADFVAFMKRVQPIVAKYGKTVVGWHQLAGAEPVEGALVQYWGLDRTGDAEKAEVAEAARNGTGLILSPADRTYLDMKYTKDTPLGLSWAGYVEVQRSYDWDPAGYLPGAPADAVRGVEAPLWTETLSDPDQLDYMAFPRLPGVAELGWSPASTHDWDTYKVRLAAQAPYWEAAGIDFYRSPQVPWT
# adult mice = assay: Toxicity studies in adult mice; format: in vivo
# β-mannosidase = assay: Serum/plasma β-mannosidase in NGT-treated mice (MUM); format: in vivo
# Protocol: (§2) Plasma levels of hexosaminidases A plus B and hexosaminidase A alone were measured by the fluorescent assay described above, using MUG and MUGS as substrates respectively. β-mannosidase was similarly assayed using 4-methylumbelliferyl-β-D-mannopyranoside (MUM) as substrate.
# hexosaminidase B [7] = molecular target: T3, hexosaminidase B (Homo sapiens, UniProt P07686); assay: Heat denaturation of hexosaminidase B at 60° C.; format: biochemical; conditions: 60° C. up to 40 minutes, 2.4 μm NAG-thiazoline, MUG
# T3 construct: from tissue; host or cells: human placenta
# T3 sequence (P07686 315-556 limits assumed): as the sequence (P07686 315-556 limits assumed, one chain of several) above
# T3 sequence (P07686 122-311 limits assumed): as the sequence (P07686 122-311 limits assumed, one chain of several) above
# T3 sequence (P07686 50-107 partner limits assumed): as the sequence (P07686 50-107 partner limits assumed, one chain of several) above
# Protocol: The effect of NAG-thiazoline on heat denaturation of human hexosaminidase B was also examined. The enzyme was incubated at 60° C. for up to 40 minutes in the presence or absence of 2.4 μm NAG-thiazoline and its activity was then assayed as described above using MUG as substrate.
# hexosaminidase B [8] = molecular target: T3, hexosaminidase B; assay: Denaturation of hexosaminidase B by guanidine hydrochloride; format: biochemical
# [9] = tested on: hexosaminidases A plus B (total Hex); assay: Plasma hexosaminidase A plus B in NGT-treated mice (MUG); format: in vivo; conditions: CD1 mice, 10, 40 or 100 mg i.p., 2 days later
# Protocol: as §2
# hexosaminidase A plus B = assay: Brain hexosaminidase A plus B in NGT-treated mice; format: in vivo; conditions: 40 mg s.c. every 4 days for 15 days
# [10] = molecular target: T2, hexosaminidase from the bacterial species Streptomyces plicatus (Sp. Hex.); assay: Ki on bacterial hexosaminidase (MUG assay); format: biochemical
# [11] = adult male CD1 mice, 40 mg/mouse i.v. or s.c. every four days up to 30 days
smiles,measurement,setting,value
"CC(=O)NC1CN2CCC(O)C2C(O)C1O (stereo not drawn) [ACAS, 6-acetamido-6-deoxy-castanospermine]",hexosaminidase A activity,"[1]; WT fibroblasts, all concentrations",decreased
same,hexosaminidase A activity,"[1]; wild type cells, ACAS 4 days, MUGS",increased
same,hexosaminidase A activity,"[2]; ITSD fibroblasts, all concentrations",decreased
same,hexosaminidase A activity,"[2]; infantile Tay-Sachs cells, ACAS 4 days, MUGS",not
same,hexosaminidase A activity,[3]; various concentrations of ACAS,increased
same,hexosaminidase A activity,[4]; various concentrations of ACAS,increased
"CC(=O)N[C@@H]1[C@@H](O)[C@@H](O)[C@@H](CO)O[C@H]1O [GalNAc, N-acetyl-β-D-galactosamine]",concentration at which cell lysis occurred,[5],> 200000 µM
"CC1=NC2[C@@H](O)[C@@H](O)C(CO)O[C@H]2S1 (stereo partly drawn) [NAGal-thiazoline (2.6), N-acetyl galactosamine-thiazoline]",mode of inhibition of hexosaminidase A,human hexosaminidase A,competitive inhibitors
same,Ki,[6],100 µM
"CC1=NC2[C@@H](O)[C@H](O)C(CO)O[C@H]2S1 (stereo partly drawn) [NGT, N-acetylglucosamine-thiazoline]",mode of inhibition of hexosaminidase A,human hexosaminidase A,competitive inhibitors
same,increase in hexosaminidase A activity,"[1]; WT fibroblasts, NGT 3 mM",two fold
same,MUGS hydrolysis with increasing concentration,[2]; ITSD cells,decline
same,acute or sub-acute toxicity,adult mice; [11],No acute or sub-acute toxicity was observed
same,histological examination of autopsied tissues,adult mice; [11],no changes
same,signs of toxicity,"adult mice; adult mice, 10, 40 or 100 mg i.p.",None of the mice treated with inhibitors showed any signs of toxicity
same,plasma β-mannosidase level,"β-mannosidase; CD1 mice, 10, 40 or 100 mg i.p., 2 days later",unchanged
same,serum βD mannosidase levels versus control,"β-mannosidase; mice, 10, 40 or 100 mg i.p., 3 to 4 days after treatment",generally the same
same,hexosaminidase A and S activity,[3]; NGT,increased
same,activity of Hexosaminidase A/S (MUGS),"[4]; 2 days, varying concentrations",increased
same,hexosaminidase S activity,[4]; NGT,increased
same,hexosaminidase B activity after heat denaturation versus control,hexosaminidase B [7],preserved greater hexosaminidase B activity than seen in the control
same,protection of hexosaminidase B against denaturation by guanidine hydrochloride,hexosaminidase B [8],protect
same,plasma hexosaminidase A plus B (total Hex) level,[9],unchanged
same,brain hexosaminidase A plus B,hexosaminidase A plus B,essentially unchanged
same,Ki,[6],20 µM
"CC(=O)NC1NCCC(O)C1O (stereo not drawn) [XylNAc-isofagomine•HCI (2.7), XylNAc-isofagomine•HCI]",Ki,[10],38 µM
same,Ki,human hexosaminidase A; read-out: Ki Hex A,90 µM
